# Several values for one entry are separate records, joined by “and”; a condition that tells them apart may be missing. Identical values can stand only once. Like-named read-outs stand apart in the source and are kept apart here.
# Assays:
# [1] = tested on: cytochrome P (CYP) enzymes; design: method as in earlier work; conditions: cited from earlier work
# [2] = cited from earlier work
# [3] = cited from earlier work; remark: listed apart in the source
# [4] = Population pharmacokinetic (popPK) model of plasma concentrations in adult patients (OpTAT study)
# From the text: Data were collected during the OpTAT study. […] Blood samples were collected from patients during their regular medical visits, with a maximum of eight samples taken per patient.
# The digital monitor allowed us to provide accurate information on treatment implementation (i.e., the extent to which the patient’s dosing history is in line with the prescription—the correct dosing regimen, at the correct time and in the right condition) and temporary or long-term discontinuation of treatment (i.e., when the patient stops taking the treatment prematurely). For the remaining patients, dosing history was reconstructed based on information from the medical consultation notes, assuming steady-state condition if no information was available. Patient demographic and clinical data were extracted from medical records. For all clinical and laboratory data (e.g., body weight, hepatic or renal function), the closest measurement to the blood sample was used. If no measurement was taken within 10 days before or after the sample, then it was considered a missing value. Creatinine clearance (CrCL) was estimated using the Cockcroft–Gault formula [43]. Fat-free mass (FFM) was calculated using the following formula [44]:(1) FFMkg=BW×1−BFPbmi/100 with BW denoting bodyweight in kg and BFPbmi denoting body fat percentage, calculated using the following formula:(2) BFPbmi%=1.20×BMI+0.23×AGE−10.8×SEX−5.4 with BMI representing body mass index, in kg/m^2. SEX = 0 if women and 1 if men and AGE is provided in years.
# The development of the population pharmacokinetic (popPK) model was performed using nonlinear mixed-effect modelling (Nonmem, ICON, Dublin, Ireland, version 7.4.3) and Pearl speaks Nonmem (PsN, version 4.8.0). Pirana (Certara, Radnor, PA, USA, version 2.9.6) was used for the management of runs, R (version 4.0.2), for graphical and statistical analyses.
# A classical stepwise procedure was used to build the model. […] Inter-individual variability (IIV) was successively incorporated into each PK parameter. Different error models, including additive, proportional, and combined error models, were also assessed. Different values retrieved from the literature of absorption rate constants (ka), ranging from 0.4 to 2 h^−1, were evaluated due to insufficient data being collected during the absorption phase. For each patient, the time required to reach maximum concentration (Tmax) was estimated.
# Biologically relevant covariates were introduced into the model through a forward/backward insertion/deletion method. Covariates tested were sex, body weight, body mass index (BMI), body surface area (BSA), age, FFM, CrCL, urea, total bilirubin, alkaline phosphatase (PAL), aspartate aminotransferase (ASAT), alanine aminotransferase (ALAT), concomitant administration of dabrafenib, and food intake. Initially, a univariate analysis was conducted, during which covariates were added one by one to the model. Continuous covariates were centred and normalized to the population median and were added to the model using either linear or allometric relationships, while categorical covariates followed a linear relationship. Missing values were assigned the population median. Subsequently, a multivariate analysis was performed of the identified significant covariates to develop the comprehensive model. Finally, a reductive analysis was performed to retain only the most significant covariates.
# The assumption of steady state for patients without adherence information may have biased the analysis by interpreting low levels as high clearances resulting from missed doses rather than from a covariate effect. To verify this, a sensitivity analysis was conducted of the 11 patients with full adherence information. We assumed that if the significant covariate–parameter relationship persisted, its influence on the pharmacokinetic parameter would be confirmed, whereas, if not, this influence might have been confounded by other factors, including suboptimal adherence.
# [5] = cited from earlier work; remark: listed apart in the source
# [6] = Figure 1; cited from earlier work
# [7] = design: method as in PMID 32283865; conditions: fixed to a literature value; cited from earlier work
# [8] = bootstrap performed on 2000 runs
smiles,measurement,setting,value
CC(=O)Nc1cccc(-n2c(=O)n(C3CC3)c(=O)c3c(Nc4ccc(I)cc4F)n(C)c(=O)c(C)c32)c1 [trametinib],substrate of cytochrome P (CYP) enzymes,[1],not a substrate
same,Steady-state at day,[2]; Figure 1,15 days
same,excreted in the urine,[2],19%
same,terminal half-life,[2],around 127 h
same,time at which maximum concentration is reached after administration,[2],approximately 1.5 h
same,excreted in the urine,[2]; listed as Trametinib,≤ 19%
same,bioavailability,[2]; oral,72%
same,lipophilicity (in words),[3],lipophilic
same,decrease in CL,[4]; 80-year-old versus 30-year-old patient,40%
same,increase in CL,[4]; FFM of 68 kg compared with population median of 46.35 kg,66%
same,"IIV (CV%) on CL, base model",[4]; base two-compartment model,45%
same,"central volume (V2), base model",[4]; base two-compartment model,102 L
same,"intercompartmental clearance (Q), base model",[4]; base two-compartment model,35.1 L/h
same,"peripheral volume (V3), base model",[4]; base two-compartment model,338 L
same,"IIVCL, Bootstrap Median (95% PI)",[4]; [8],"22 (13, 28) %"
same,"Q, Bootstrap Median (95% PI)",[4]; [8],"28.83 (12.69, 60.68) L·h^−1"
same,"V2, Bootstrap Median (95% PI)",[4]; [8],"101.84 (65.42, 143.40) L"
same,"V3, Bootstrap Median (95% PI)",[4]; [8],"286.48 (104.63, 385.40) L"
same,"θAGE, Bootstrap Median (95% PI)",[4]; [8],−0.66 (−1.25 to −0.20)
same,"θCL, Bootstrap Median (95% PI)",[4]; [8],"3.98 (3.52, 4.45) L·h^−1"
same,"θFFM, Bootstrap Median (95% PI)",[4]; [8],"1.41 (0.92, 1.90)"
same,"σprop, Bootstrap Median (95% PI)",[4]; [8],"20 (16, 24) %"
same,"Tmax, median (min, max) estimated per patient","[4]; both, human, in vivo",1.7 h
same,Tmax,"[4]; both, human, in vivo, Tmax, median (min, max) estimated per patient",1.75 h
same,clearance,"[4]; both, human, plasma, oral",70 mL/min
same,CL variability explained by age,[4]; covariate age,21%
same,increase in CL with coadministration of dabrafenib,"[4]; covariate analysis, RSE = 46%, effect excluded after sensitivity analysis (adherence confounding)",40%
same,CL variability explained by FFM,[4]; covariate fat-free mass,66%
same,"IIVCL (inter-individual variability of CL, CV), Final Model Estimation (RSE %)",[4]; final model,23 (14) %
same,"Q (typical intercompartmental clearance), Final Model Estimation (RSE %)",[4]; final model,29.4 (30) L·h^−1
same,"V2 (typical volume of distribution, central), Final Model Estimation (RSE %)",[4]; final model,108 L and 108 (16) L
same,"V3 (peripheral volume of distribution), Final Model Estimation (RSE %)",[4]; final model,286 L and 286 (25) L
same,"θCL (typical clearance), Final Model Estimation (RSE %)",[4]; final model,3.96 L·h^−1 and 3.96 (6) L·h^−1
same,"σprop (proportional residual error, CV), Final Model Estimation (RSE %)",[4]; final model,20 (10) %
same,"θAGE (effect of age on CL), Final Model Estimation (RSE %)","[4]; final model, AGEmedian = 63 years",−0.69 (32)
same,"θFFM (effect of fat-free mass on CL), Final Model Estimation (RSE %)","[4]; final model, FFMmedian = 46.35 kg",1.41 (17)
same,CL in a previous popPK model (first value named),[5],5.83 L/h
same,CL in a previous popPK model (second value named),[5],4.91 L/h
same,peripheral volume of distribution,[5]; ref Balakirouchenane et al. [38],417 L
same,central volume of distribution,[5]; ref Ouellet et al. [37],214 L
same,peripheral volume of distribution,[5]; ref Ouellet et al. [37],568 L
same,Most frequent adverse events: Abdominal pain,[6],17%
same,Most frequent adverse events: Arthralgia,[6],26%
same,Most frequent adverse events: Asthenia,[6],15%
same,Most frequent adverse events: Chills,[6],33%
same,Most frequent adverse events: Constipation,[6],13%
same,Most frequent adverse events: Coughing,[6],20%
same,Most frequent adverse events: Cutaneous dryness,[6],13%
same,Most frequent adverse events: Diarrhea,[6],32%
same,Most frequent adverse events: Erythema,[6],10%
same,Most frequent adverse events: Fatigue,[6],38%
same,Most frequent adverse events: Flu infection,[6],11%
same,Most frequent adverse events: Haemorrhages,[6],19%
same,Most frequent adverse events: Headache,[6],33%
same,Most frequent adverse events: Hypertension,[6],19%
same,Most frequent adverse events: Increase in ALAT,[6],14%
same,Most frequent adverse events: Increase in ASAT,[6],13%
same,Most frequent adverse events: Loss of appetite,[6],14%
same,Most frequent adverse events: Muscle cramps,[6],10%
same,Most frequent adverse events: Myalgia,[6],15%
same,Most frequent adverse events: Nausea,[6],38%
same,Most frequent adverse events: Pain in the extremities,[6],12%
same,Most frequent adverse events: Peripheral oedema,[6],16%
same,Most frequent adverse events: Pruritus,[6],10%
same,Most frequent adverse events: Pyrexia,[6],58%
same,Most frequent adverse events: Rash,[6],24%
same,Most frequent adverse events: Rhinopharyngitis,[6],11%
same,Most frequent adverse events: Vomiting,[6],29%
same,Most frequent adverse events: dizziness,[6],11%
same,ka (absorption rate constant),[7],0.913 h^−1 and 0.913 fixed h^−1
